Test results taken from PubChem BioAssay (NCI).
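Five compound concentrations were applied to cells in 96-well plates for 48 hours; endpoints were derived by simple linear interpolation of the resulting dose-response curve. TGI: concentration producing complete growth inhibition.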

Columns and labels:
Assay in all cases: DTP human tumour cell line panel, 48 h
M19-MEL melanoma = tested on: M19-MEL melanoma
SK-MEL-2 melanoma = tested on: SK-MEL-2 melanoma
RXF 393 renal = tested on: RXF 393 renal
SNB-19 CNS = tested on: SNB-19 CNS
SK-OV-3 ovarian = tested on: SK-OV-3 ovarian
KM20L2 colon = tested on: KM20L2 colon
UO-31 renal = tested on: UO-31 renal
M14 melanoma = tested on: M14 melanoma
786-0 renal = tested on: 786-0 renal
NCI-H23 lung = tested on: NCI-H23 lung
HCC-2998 colon = tested on: HCC-2998 colon
HCT-116 colon = tested on: HCT-116 colon
HOP-62 NSCLC = tested on: HOP-62 NSCLC
XF 498 CNS = tested on: XF 498 CNS
HL-60(TB) leukemia = tested on: HL-60(TB) leukemia
UACC-62 melanoma = tested on: UACC-62 melanoma
OVCAR-5 ovarian = tested on: OVCAR-5 ovarian
COLO 205 colon = tested on: COLO 205 colon
DLD-1 colon = tested on: DLD-1 colon
SF-539 CNS = tested on: SF-539 CNS
ACHN renal = tested on: ACHN renal
NCI-H226 lung = tested on: NCI-H226 lung
MALME-3M melanoma = tested on: MALME-3M melanoma
RPMI-8226 leukemia = tested on: RPMI-8226 leukemia
DMS 273 small cell lung = tested on: DMS 273 small cell lung
TK-10 renal = tested on: TK-10 renal
NCI-H460 lung = tested on: NCI-H460 lung
SN12C renal = tested on: SN12C renal
HOP-18 NSCLC = tested on: HOP-18 NSCLC
NCI-H522 lung = tested on: NCI-H522 lung
CCRF-CEM leukemia = tested on: CCRF-CEM leukemia
SF-268 CNS = tested on: SF-268 CNS
LXFL 529 NSCLC = tested on: LXFL 529 NSCLC
A549 NSCLC = tested on: A549 NSCLC
EKVX NSCLC = tested on: EKVX NSCLC
U251 CNS = tested on: U251 CNS
HCT-15 colon = tested on: HCT-15 colon
KM12 colon = tested on: KM12 colon
LOX IMVI melanoma = tested on: LOX IMVI melanoma
CAKI-1 renal = tested on: CAKI-1 renal
OVCAR-4 ovarian = tested on: OVCAR-4 ovarian
HT29 colon = tested on: HT29 colon
MOLT-4 leukemia = tested on: MOLT-4 leukemia
SNB-75 CNS = tested on: SNB-75 CNS
IGROV1 ovarian = tested on: IGROV1 ovarian
SW-620 colon = tested on: SW-620 colon
SF-295 CNS = tested on: SF-295 CNS
SK-MEL-28 melanoma = tested on: SK-MEL-28 melanoma
K-562 leukemia = tested on: K-562 leukemia
UACC-257 melanoma = tested on: UACC-257 melanoma
SR leukemia = tested on: SR leukemia
OVCAR-8 ovarian = tested on: OVCAR-8 ovarian
HOP-92 NSCLC = tested on: HOP-92 NSCLC
A498 renal = tested on: A498 renal
OVCAR-3 ovarian = tested on: OVCAR-3 ovarian
SNB-78 CNS = tested on: SNB-78 CNS
DMS 114 small cell lung = tested on: DMS 114 small cell lung
SK-MEL-5 melanoma = tested on: SK-MEL-5 melanoma

O=C1CC[C@H](NC(=O)Cc2ccccc2)C(=O)N1
TGI (M19-MEL melanoma): > 1250 µM
TGI (SK-MEL-2 melanoma): > 1250 µM
TGI (RXF 393 renal): > 1250 µM
TGI (SNB-19 CNS): > 1250 µM
TGI (SK-OV-3 ovarian): > 1250 µM
TGI (KM20L2 colon): > 1250 µM
TGI (UO-31 renal): > 1250 µM
TGI (M14 melanoma): > 1250 µM
TGI (786-0 renal): > 1250 µM
TGI (NCI-H23 lung): > 1250 µM
TGI (HCC-2998 colon): > 1250 µM
TGI (HCT-116 colon): > 1250 µM
TGI (HOP-62 NSCLC): > 1250 µM
TGI (XF 498 CNS): > 1250 µM
TGI (HL-60(TB) leukemia): > 1250 µM
TGI (UACC-62 melanoma): > 1250 µM
TGI (OVCAR-5 ovarian): > 1250 µM
TGI (COLO 205 colon): > 1250 µM
TGI (DLD-1 colon): > 1250 µM
TGI (SF-539 CNS): > 1250 µM
TGI (ACHN renal): > 1250 µM
TGI (NCI-H226 lung): > 1250 µM
TGI (MALME-3M melanoma): > 1250 µM
TGI (RPMI-8226 leukemia): > 1250 µM
TGI (DMS 273 small cell lung): > 1250 µM
TGI (TK-10 renal): > 1250 µM
TGI (NCI-H460 lung): > 1250 µM
TGI (SN12C renal): > 1250 µM
TGI (HOP-18 NSCLC): > 1250 µM
TGI (NCI-H522 lung): > 1250 µM
TGI (CCRF-CEM leukemia): > 1250 µM
TGI (SF-268 CNS): > 1250 µM
TGI (LXFL 529 NSCLC): > 1250 µM
TGI (A549 NSCLC): > 1250 µM
TGI (EKVX NSCLC): > 1250 µM
TGI (U251 CNS): > 1250 µM
TGI (HCT-15 colon): > 1250 µM
TGI (KM12 colon): > 1250 µM
TGI (LOX IMVI melanoma): > 1250 µM
TGI (CAKI-1 renal): > 1250 µM
TGI (OVCAR-4 ovarian): > 1250 µM
TGI (HT29 colon): > 1250 µM
TGI (MOLT-4 leukemia): > 1250 µM
TGI (SNB-75 CNS): > 1250 µM
TGI (IGROV1 ovarian): > 1250 µM
TGI (SW-620 colon): > 1250 µM
TGI (SF-295 CNS): > 1250 µM
TGI (SK-MEL-28 melanoma): > 1250 µM
TGI (K-562 leukemia): > 1250 µM
TGI (UACC-257 melanoma): > 1250 µM
TGI (SR leukemia): > 1250 µM
TGI (OVCAR-8 ovarian): > 1250 µM

Cc1cn(C2CC(OC3CCCCO3)C(CO)O2)c(=O)[nH]c1=O (centres undefined)
TGI (M19-MEL melanoma): > 100 µM
TGI (SK-MEL-2 melanoma): > 100 µM
TGI (RXF 393 renal): > 100 µM
TGI (SNB-19 CNS): > 100 µM
TGI (SK-OV-3 ovarian): > 100 µM
TGI (KM20L2 colon): > 100 µM
TGI (UO-31 renal): > 100 µM
TGI (M14 melanoma): > 100 µM
TGI (786-0 renal): > 100 µM
TGI (NCI-H23 lung): > 100 µM
TGI (HCC-2998 colon): > 100 µM
TGI (HOP-92 NSCLC): > 100 µM
TGI (HCT-116 colon): > 100 µM
TGI (HOP-62 NSCLC): > 100 µM
TGI (XF 498 CNS): > 100 µM
TGI (HL-60(TB) leukemia): > 100 µM
TGI (OVCAR-5 ovarian): > 100 µM
TGI (COLO 205 colon): > 100 µM
TGI (DLD-1 colon): > 100 µM
TGI (SF-539 CNS): > 100 µM
TGI (ACHN renal): > 100 µM
TGI (A498 renal): > 100 µM
TGI (NCI-H226 lung): > 100 µM
TGI (MALME-3M melanoma): > 100 µM
TGI (RPMI-8226 leukemia): > 100 µM
TGI (OVCAR-3 ovarian): > 100 µM
TGI (DMS 273 small cell lung): > 100 µM
TGI (TK-10 renal): > 100 µM
TGI (NCI-H460 lung): > 100 µM
TGI (SN12C renal): > 100 µM
TGI (HOP-18 NSCLC): > 100 µM
TGI (NCI-H522 lung): > 100 µM
TGI (CCRF-CEM leukemia): > 100 µM
TGI (SF-268 CNS): > 100 µM
TGI (SNB-78 CNS): > 100 µM
TGI (LXFL 529 NSCLC): > 100 µM
TGI (A549 NSCLC): > 100 µM
TGI (EKVX NSCLC): > 100 µM
TGI (U251 CNS): > 100 µM
TGI (HCT-15 colon): > 100 µM
TGI (KM12 colon): > 100 µM
TGI (LOX IMVI melanoma): > 100 µM
TGI (OVCAR-4 ovarian): > 100 µM
TGI (HT29 colon): > 100 µM
TGI (MOLT-4 leukemia): > 100 µM
TGI (IGROV1 ovarian): > 100 µM
TGI (SW-620 colon): > 100 µM
TGI (SF-295 CNS): > 100 µM
TGI (SK-MEL-28 melanoma): > 100 µM
TGI (K-562 leukemia): > 100 µM
TGI (UACC-257 melanoma): > 100 µM
TGI (SR leukemia): > 100 µM
TGI (OVCAR-8 ovarian): > 100 µM

[N-]=[N+]=Nc1cc(=O)n(-c2ccccc2)c2ccccc12
TGI (M19-MEL melanoma): > 100 µM
TGI (SK-MEL-2 melanoma): > 100 µM
TGI (RXF 393 renal): > 100 µM
TGI (SK-OV-3 ovarian): > 100 µM
TGI (UO-31 renal): > 100 µM
TGI (M14 melanoma): > 100 µM
TGI (786-0 renal): > 100 µM
TGI (NCI-H23 lung): > 100 µM
TGI (HCT-116 colon): > 100 µM
TGI (HOP-62 NSCLC): > 100 µM
TGI (HL-60(TB) leukemia): > 100 µM
TGI (UACC-62 melanoma): > 100 µM
TGI (OVCAR-5 ovarian): > 100 µM
TGI (COLO 205 colon): > 100 µM
TGI (DLD-1 colon): > 100 µM
TGI (SF-539 CNS): > 100 µM
TGI (ACHN renal): > 100 µM
TGI (NCI-H226 lung): > 100 µM
TGI (MALME-3M melanoma): > 100 µM
TGI (DMS 114 small cell lung): > 100 µM
TGI (RPMI-8226 leukemia): > 100 µM
TGI (DMS 273 small cell lung): > 100 µM
TGI (TK-10 renal): > 100 µM
TGI (NCI-H460 lung): > 100 µM
TGI (SN12C renal): > 100 µM
TGI (HOP-18 NSCLC): > 100 µM
TGI (NCI-H522 lung): > 100 µM
TGI (CCRF-CEM leukemia): > 100 µM
TGI (SF-268 CNS): > 100 µM
TGI (LXFL 529 NSCLC): > 100 µM
TGI (A549 NSCLC): > 100 µM
TGI (U251 CNS): > 100 µM
TGI (HCT-15 colon): > 100 µM
TGI (KM12 colon): > 100 µM
TGI (LOX IMVI melanoma): > 100 µM
TGI (CAKI-1 renal): > 100 µM
TGI (OVCAR-4 ovarian): > 100 µM
TGI (HT29 colon): > 100 µM
TGI (MOLT-4 leukemia): > 100 µM
TGI (SNB-75 CNS): > 100 µM
TGI (IGROV1 ovarian): > 100 µM
TGI (SW-620 colon): > 100 µM
TGI (SF-295 CNS): > 100 µM
TGI (SK-MEL-28 melanoma): > 100 µM
TGI (SK-MEL-5 melanoma): > 100 µM
TGI (K-562 leukemia): > 100 µM
TGI (UACC-257 melanoma): > 100 µM
TGI (SR leukemia): > 100 µM
TGI (OVCAR-8 ovarian): > 100 µM
